Several values for one entry are separate records, joined by “and”; a condition that tells them apart may be missing. Equal entries are not always repeated.
What was measured:
[1] = system: L. jensenii; assay: High throughput assay screening of prebiotics; assay type: cell-based, Lactobacillus jensenii; set-up: key: ++: if growth and fermentation was equal to or greater than the positive control; +: if growth and fermentation was less than the positive control; +: if weak or no growth or fermentation; +^2: Bacteria demonstrated growth but no fermentation on the prebiotic; details: 2% w/v prebiotic in API 50 CHL media
Description: (§1) Most of the prebiotic compounds were initially tested in a high throughput assay screening process, described further in the Test Methods section herein, but three prebiotics (as noted in Table 3) were tested using a plate assay screening process as described in the Test Methods section herein. The prebiotics were tested against the commensal bacterial species of Lactobacillus crispatus, Lactobacillus gasseri, and Lactobacillus jensenii and against the pathogenic bacterial species of Streptococcus anginosus and Enterococcus faecalis as shown in Table 2. The bacterial species were taken from different sources, listed as culture collection, bladder, and vagina.
(§2) The results of the assay plate screening of the prebiotic compounds of Table 1 against the bacterial species of Table 2 is documented in Table 3 with the results being described by the following legend: • ++ if growth and fermentation was equal to or greater than the positive control • + if growth and fermentation was less than the positive control • […] if weak or no growth or fermentation • NT if not tested Some codes were not tested based on the use or non-use by the bacteria, as a way to efficiently move through the assay plate screening to the competition assay, described below.
(§3) • 1. Create a 2% w/v stock of prebiotic or positive control (glucose/dextrose) to be tested in API 50 CHL media (Biomerieux, Marcy-I'Étoile, France). API 50 CHL media contains minimal amounts of carbon for growth, and a bromocresol purple as a pH indicator of fermentation. Filter sterilize media with a […]. Store at 4-6° C. until use. • 2. Add 180 μL of media containing the prebiotic to a sterile, flat bottom 96-well microtiter plate (Corning, Corning, NY). • 3. From a freezer stock subculture the bacteria twice into De Man, Rogosa and Sharpe (MRS) broth (BD Difco, Becton Dickinson, Franklin Lakes, NJ), 37° C., stationary, anaerobic, overnight. • 4. From the last subculture, plate onto an MRS agar plate (Teknova, Hollister, CA) and grow 37° C., stationary, anaerobic, overnight. • 5. Create a bacterial suspension by using a sterile tipped swab to transfer colonies of bacteria into a PBS suspension blank to a 0.5 MacFarland (S. anginosus or E. faecalis) or a 1 MacFarland (Lactobacillus species) from the MRS agar plate. • 6. Enumerate the starting culture. • 7. Inoculate the media alone and media containing the prebiotic or positive control with 20 μL of the bacterial suspension. • 8. Place the plate into a spectrophotometer (Molecular Devices, San Jose, CA) and read the plate every 20 minutes for 24-48 hours. Read wavelengths (OD 430, OD 590, and OD 660). A color change to yellow caused by a drop in pH will be read by an increase in the OD430 value and a decrease in the OD590 value and is indicative of bacterial fermentation. An increase in OD660 values is indicative of an increase in turbidity and bacterial growth.

[2] = system: L. gasseri; assay: High throughput assay screening of prebiotics; assay type: cell-based, Lactobacillus gasseri; set-up: key: ++: if growth and fermentation was equal to or greater than the positive control; +: if growth and fermentation was less than the positive control; +: if weak or no growth or fermentation; +^2: Bacteria demonstrated growth but no fermentation on the prebiotic; details: 2% w/v prebiotic in API 50 CHL media; for growth and fermentation vs positive control, Lg-1: L. gasseri KC16-7135-1, Bladder
Description: as §1, §2, §3

[3] = system: commensal and pathogenic bacterial species; assay: Prebiotic screening, summary in words across species; assay type: cell-based; details: for overall outcome of the screening of Table 3, in words: commensal (L. crispatus, L. gasseri, L. jensenii) and pathogenic (S. anginosus, E. faecalis) species
Description: as §1, §2, §3
• 1. An in house bacterial agar was created based on MRS agar (Kaplan and Hutkins, 2000) where the glucose is substituted for the prebiotic to be tested (either dextran MW ˜6,000, alpha-cyclodextrin, glucomannan, or pectin), bromocresol purple was included as a pH indicator. • 2. Bacteria were enumerated on each agar and color changes were recorded. Method for Competition Assay (Modified from “In Vitro Evaluation of Nutrients that Selectively Confer a Competitive Advantage to Lactobacilli” Vongsa et al, Beneficial Microbes 2016) • 1. Create 2% w/v stock of prebiotic or positive control (glucose/dextrose) as described above. • 2. From a freezer stock subculture the bacteria twice into De Man, Rogosa and Sharpe (MRS) broth (BD Difco, Becton Dickinson, Franklin Lakes, NJ), 37° C., stationary, anaerobic, overnight. • 3. From the last subculture, plate onto an MRS agar plate for L. crispatus KC18-1173-1 or blood agar for S. anginosus KC18-1131-3B, grow 37° C., stationary, anaerobic, overnight. • 4. […]

[4] = system: E. faecalis; assay: High throughput assay screening of prebiotics; assay type: cell-based, Enterococcus faecalis; set-up: key: ++: if growth and fermentation was equal to or greater than the positive control; +: if growth and fermentation was less than the positive control; +: if weak or no growth or fermentation; +^2: Bacteria demonstrated growth but no fermentation on the prebiotic; details: 2% w/v prebiotic in API 50 CHL media; for growth and fermentation vs positive control, Ef-1: E. faecalis ATCC BAA-2128, Culture Collection; for growth and fermentation vs positive control, Ef-2: E. faecalis KC16-7171-3, Bladder; for growth and fermentation vs positive control, Ef-3: E. faecalis KC17-3969-2B, Bladder; for growth and fermentation vs positive control, Ef-4: E. faecalis KC17-4331-3, Bladder
Description: as §1, §2, §3

[5] = system: S. anginosus; assay: High throughput assay screening of prebiotics; assay type: cell-based, Streptococcus anginosus; set-up: key: ++: if growth and fermentation was equal to or greater than the positive control; +: if growth and fermentation was less than the positive control; +: if weak or no growth or fermentation; +^2: Bacteria demonstrated growth but no fermentation on the prebiotic; details: 2% w/v prebiotic in API 50 CHL media; for growth and fermentation vs positive control, Sa-2: S. anginosus KC18-1131-3B, Bladder
Description: as §1, §2, §3

[6] = system: L. crispatus; assay: High throughput assay screening of prebiotics; assay type: cell-based, Lactobacillus crispatus; set-up: key: ++: if growth and fermentation was equal to or greater than the positive control; +: if growth and fermentation was less than the positive control; +: if weak or no growth or fermentation; +^2: Bacteria demonstrated growth but no fermentation on the prebiotic; details: 2% w/v prebiotic in API 50 CHL media
Description: as §1, §2, §3

[7] = system: S. anginosus, KC18-1131-3B, Bladder (Sa-2); assay type: cell-based; details: Table 6, prebiotic 2%, one line per replicate
Description: (§4) Further testing was conducted to put the prebiotic compounds in competition assay testing, as further described in the test methods section herein. In the competition assay testing, each competition involved testing a single prebiotic compound with the commensal bacteria species of L. crispatus, KC18-1173-1, Bladder (“Lc-3”—Table 2) against the pathogenic bacterial species of S. anginosus, KC18-1131-3B, Bladder (“Sa-2”—Table 2).
(§5) • 1. An in house bacterial agar was created based on MRS agar (Kaplan and Hutkins, 2000) where the glucose is substituted for the prebiotic to be tested (either dextran MW ˜6,000, alpha-cyclodextrin, glucomannan, or pectin), bromocresol purple was included as a pH indicator. • 2. Bacteria were enumerated on each agar and color changes were recorded. Method for Competition Assay (Modified from “In Vitro Evaluation of Nutrients that Selectively Confer a Competitive Advantage to Lactobacilli” Vongsa et al, Beneficial Microbes 2016) • 1. Create 2% w/v stock of prebiotic or positive control (glucose/dextrose) as described above. • 2. From a freezer stock subculture the bacteria twice into De Man, Rogosa and Sharpe (MRS) broth (BD Difco, Becton Dickinson, Franklin Lakes, NJ), 37° C., stationary, anaerobic, overnight. • 3. From the last subculture, plate onto an MRS agar plate for L. crispatus KC18-1173-1 or blood agar for S. anginosus KC18-1131-3B, grow 37° C., stationary, anaerobic, overnight. • 4. Create a bacterial suspension by using a sterile tipped swab to transfer colonies of bacteria into a PBS suspension blank to a 2 MacFarland for both species. • 5. Enumerate the starting culture. • 6. Add 9.8 mL of prebiotic media into a 15 mL conical tube. • 7. Add 100 μL of the diluted bacteria to the media, incubate at 37° C., anaerobic, 48 hours. • 8. Harvest 100 μL from the tube containing the prebiotic and plate onto MRS agar and tryptic soy agar (TSA). • 9. Enumerate the bacteria on the MRS agar (both the L. crispatus and the S. anginosus). Small colonies are counted as S. anginosus and large colonies are counted as L. crispatus. • 10. Enumerate the bacteria on the TSA plate. […] Growth of the bacteria in the negative control (CHL media without prebiotic) was subtracted from the growth in the presence of the prebiotic or formulation.

[8] = system: ratio of L. crispatus/S. anginosus; assay: Therapeutic effect protocol (competition assay); assay type: cell-based, Lactobacillus crispatus; Streptococcus anginosus; details: Table 6; prebiotic 2%; Lc-3 vs Sa-2
Source text: As used herein, the term “therapeutic effect” refers to the ability of the compositions and formulations of the present disclosure to stimulate the growth of L. crispatus relative S. anginosus measured according to the therapeutic effect protocol described below. The therapeutic effect can be expressed as a ratio of L. crispatus to S. anginosus and is desirably greater than about 100, more preferably greater than about 500 and more desirably greater than about 1,000.
as §4, §5
Colonies of L. crispatus and S. anginosus were tested against in the competition method assay test method as described above. The therapeutic effect was calculated by comparing the colony forming units recovered after the competition assay of both L. crispatus and S. anginosus and calculating the ratio of L. crispatus/S. anginosus. A larger number indicates an increase in L. crispatus and/or a decrease in S. anginosus and a smaller number indicates a decrease in L. crispatus and/or an increase in S. anginosus.

[9] = system: L. crispatus, KC18-1173-1, Bladder (Lc-3); assay: Competition assay, L. crispatus recovered; assay type: cell-based, Lactobacillus crispatus; details: Table 6, prebiotic 2%, one line per replicate
Description: as §4, §5

[10] = change vs start, background growth in CHL media subtracted, MRS agar

OCc1ccccc1O[C@@H]1O[C@H](CO)[C@@H](O)[C@H](O)[C@H]1O [Salicin]
growth and fermentation vs positive control, Lj-2 ([1]; L. jensenii KC17-4347-1, Bladder): ++
growth and fermentation vs positive control, Lg-1 [2]: ++
overall outcome of the screening of Table 3, in words [3]: able to provide growth on the commensal bacterial species, but also provided growth on the pathogenic bacterial species
growth and fermentation vs positive control, Ef-1 [4]: ++
growth and fermentation vs positive control, Ef-2 [4]: ++
growth and fermentation vs positive control, Ef-3 [4]: ++
growth and fermentation vs positive control, Ef-4 [4]: ++
growth and fermentation vs positive control, Sa-1 ([5]; S. anginosus ATCC 33397, Culture Collection): ++
growth and fermentation vs positive control, Sa-2 [5]: ++
growth and fermentation vs positive control, Lc-1 ([6]; L. crispatus ATCC 33820, Culture Collection): ++

OC[C@H]1O[C@H](O[C@H]2O[C@H](CO)[C@@H](O)[C@H](O)[C@H]2O)[C@H](O)[C@@H](O)[C@@H]1O [D-Trehalose]
growth and fermentation vs positive control, Lj-1 ([1]; L. jensenii KC17-4297-18, Bladder): +
growth and fermentation vs positive control, Lg-1 [2]: ++
growth and fermentation vs positive control, Lg-2 ([2]; L. gasseri KC16-7171-1, Bladder): ++
growth and fermentation vs positive control, Lg-3 ([2]; L. gasseri KC18-1131-2, Bladder): ++
growth and fermentation vs positive control, Ef-2 [4]: ++
growth and fermentation vs positive control, Ef-3 [4]: ++
growth and fermentation vs positive control, Ef-4 [4]: ++
growth and fermentation vs positive control, Sa-2 [5]: ++
growth and fermentation vs positive control, Lc-3 ([6]; L. crispatus KC18-1173-1, Bladder): ++
growth and fermentation vs positive control, Lc-4 ([6]; L. crispatus KC18-1174-1, Vagina): +

OC[C@@H](O)[C@@H](O[C@@H]1O[C@H](CO)[C@H](O)[C@H](O)[C@H]1O)[C@H](O)[C@@H](O)CO [Lactitol]
Sa-2 MRS Δ [7, 10]: 0.75 Log CFU/mL and 0.69 Log CFU/mL
Sa-2 TSA Δ ([7]; change vs start, background growth in CHL media subtracted, TSA): 0.58 Log CFU/mL and 0.52 Log CFU/mL
Sa-2 MRS end ([7]; competition Sa-2 vs Lc-3, 48 hours, anaerobic, enumerated on MRS agar): 7.45 Log CFU/mL and 7.54 Log CFU/mL
Sa-2 TSA end ([7]; competition Sa-2 vs Lc-3, 48 hours, enumerated on TSA): 7.43 Log CFU/mL and 7.65 Log CFU/mL
Therapeutic Effect (ratio of L. crispatus/S. anginosus) [8]: 2.95E−02 (2×) and 1.23E−01 (2×)
overall outcome of the screening of Table 3, in words [3]: not able to provide growth for most, if not all, commensal and pathogenic bacterial species
growth of commensal bacterial species, in words ([3]; commensal species from culture collection, the bladder, or the vagina): did not show any positive growth
growth and fermentation vs positive control, Ef-1 [4]: +
Lc-3 MRS Δ [9, 10]: 0.77 Log CFU/mL and 0.66 Log CFU/mL
Lc-3 MRS end ([9]; competition Sa-2 vs Lc-3, 48 hours, enumerated on MRS agar): 5.90 Log CFU/mL and 6.74 Log CFU/mL
